Source: patent US20070009944A1, “Assay for nucleic acid ligase and nucleic acid nuclease” (University of East Anglia, priority 2005, published 2007)
Counter-ions that a name gives are not always drawn.

Biological target: T1, E. coli DNA ligase (LigA) (Escherichia coli, UniProt P15042)
T1 construct: His tag; made in house
Experiment: In-well ligation of immobilised nicked DNA hairpins (fluorescence retention, micro-titre plate)
Type: biochemical
Conditions: 15 nM E. coli DNA ligase; ligates 60% of immobilized hairpins without inhibitor; FIG. 8; read-out: 50% inhibition of E. coli DNA ligase activity
Procedure: Ligation of immobilised nicked hairpins was performed in the streptavidin coated wells of a micro-titre plate (StreptaWell HighBind 96-well plate, opaque, white). After each of the following steps were performed, the entire solution in the well was removed and stored or discarded, as required. Hairpins were immobilised by placing 80 μL of a 5 μM hairpin solution into each well. The hairpin solution was removed after 5 minutes and the wells washed 5 times with 100 μL Wash Buffer (30 mM Tris-HCl, 4 mM MgCl2, pH 8.1), which allowed a stable fluorescence signal to be obtained from the immobilised hairpins. […] Fluorescence was recorded with a FL×800 Microplate Fluorescence Reader (Bio-Tek Instruments Inc). […]
In-well ligation of the nicked DNA hairpins by LigA was reflected by retention of fluorescence after exposure to DNA ligase and denaturation conditions, as shown in FIG. 6. […] The retention of fluorescence after exposure to DNA ligase and denaturation conditions is in contrast to the almost complete loss of fluorescence noted when the experiment was repeated without DNA ligase. […] The efficiency of in-well ligation was calculated in the following manner. The fluorescence retained in control experiments with the nicked hairpin was taken as a measure of background fluorescence intensity. […]

T1 sequence (P15042 whole entry): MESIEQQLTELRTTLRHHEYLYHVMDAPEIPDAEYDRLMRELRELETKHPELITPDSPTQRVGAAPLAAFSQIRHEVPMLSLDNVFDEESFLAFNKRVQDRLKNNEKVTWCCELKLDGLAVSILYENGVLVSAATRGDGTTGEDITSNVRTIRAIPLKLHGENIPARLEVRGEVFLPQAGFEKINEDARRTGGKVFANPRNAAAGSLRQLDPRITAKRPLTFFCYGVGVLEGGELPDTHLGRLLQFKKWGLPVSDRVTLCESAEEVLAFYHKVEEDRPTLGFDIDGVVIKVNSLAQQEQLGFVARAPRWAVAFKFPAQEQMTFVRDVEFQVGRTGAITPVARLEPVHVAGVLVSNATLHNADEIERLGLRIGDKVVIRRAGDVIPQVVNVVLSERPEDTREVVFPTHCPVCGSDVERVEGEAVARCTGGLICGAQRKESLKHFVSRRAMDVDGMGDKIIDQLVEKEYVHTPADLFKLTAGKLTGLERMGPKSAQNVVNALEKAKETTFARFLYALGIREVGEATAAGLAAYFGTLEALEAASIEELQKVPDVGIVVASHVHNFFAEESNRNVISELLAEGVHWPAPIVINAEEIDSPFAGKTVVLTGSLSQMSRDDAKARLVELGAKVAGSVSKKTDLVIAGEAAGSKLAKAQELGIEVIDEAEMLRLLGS

SMILES: CCN(CC)CCCC(C)Nc1c2ccc(Cl)cc2nc2ccc(OC)cc12 (stereo not shown) [quinacrine, quinacrine dihydrochloride]
- IC50: ~20 µM
